Experimental data reported in ChEMBL document CHEMBL3507680, “University of Dundee, Gates Library screen for HepG2 cell viability”.

Experiment: Human HepG2 cell viability assay in 384 well format
Type: toxicity, cell-based
Set-up: dose 125 nL, time 70.5 hour; cytotoxicity at 70.5 h: concentration not given beside the values
Conditions: HepG2 cells, read-out: Inhibition

CN(Cc1ccco1)C(=O)CN1C(=O)c2cc(Cl)c(Cl)cc2C1=O
cytotoxicity at 70.5 h: -16.6%

O=C(O)c1c[nH]c2cc(NS(=O)(=O)c3cccc(F)c3F)ccc12
cytotoxicity at 70.5 h: -9.73%

CCN(CC)c1ccc(C(=O)N(C)Cc2c(C)noc2C)cn1
cytotoxicity at 70.5 h: -3.66%

Cc1nc(CN2CCN(C(C)c3nc(C4CC4)no3)CC2)no1 (stereo unspecified)
cytotoxicity at 70.5 h: -4.1%

COc1ccc2c(c1)CN(c1cc(N3CCCC3CO)ncn1)CC2 (stereo unspecified)
cytotoxicity at 70.5 h: -7.51%

O=C(CSc1ccccc1F)NS(=O)(=O)c1ccc2c(c1)OCCO2
cytotoxicity at 70.5 h: -0.308%

Cc1c[nH]c(CN2CCCCC2CCc2cccc(O)c2)c(C)c1=O (stereo unspecified)
cytotoxicity at 70.5 h: -5.58%

OC1CCN(CCCNc2ncccn2)CC1
cytotoxicity at 70.5 h: 3.78%

CCN1CCN(S(=O)(=O)c2ncn(C)c2Cl)CC1
cytotoxicity at 70.5 h: -8.62%

Cc1nn(C(C)C)cc1S(=O)(=O)N(C)Cc1nonc1C
cytotoxicity at 70.5 h: -7.62%

CC(CNC(=O)NCc1ccsc1)CC1(C)OCCO1 (stereo unspecified)
cytotoxicity at 70.5 h: -8.79%

O=C(NCC1CC1)c1nnc2ccc(Cl)cc2n1
cytotoxicity at 70.5 h: -13.3%

CN(Cc1ccco1)C(=O)[C@H]1CSCN1C(=O)OC(C)(C)C
cytotoxicity at 70.5 h: -1.49%

COCCNC(=O)Nc1ccc(F)c(C(N)=O)c1
cytotoxicity at 70.5 h: -6.9%

Cc1cc(C(F)(F)F)nn1CC(C)C(=O)Nc1ccccn1 (stereo unspecified)
cytotoxicity at 70.5 h: -12.5%

CCOCC(=O)Nc1cc(C)cnc1OC
cytotoxicity at 70.5 h: -3.98%

COCCN(Cc1ccc(C)cc1)Cc1nccn1C
cytotoxicity at 70.5 h: -0.21%

O=C(O)CCC(=O)Nc1nn(Cc2ccccc2Cl)cc1Cl
cytotoxicity at 70.5 h: -5.22%

CC(C)n1cc(CN2CCCN(C(=O)CC3CCCCC3)CC2)cn1
cytotoxicity at 70.5 h: -0.435%

CC1CCN(c2cc(CCC3CCCN3)ncn2)CC1 (stereo unspecified)
cytotoxicity at 70.5 h: -3.6%

Cc1cc(C)c(CNC(=O)NC2CCOCC2)c(=O)[nH]1
cytotoxicity at 70.5 h: -12.6%

O=c1c(CN2CCCCCC2)coc(O)c1CN1CCCCCC1
cytotoxicity at 70.5 h: -4.84%

Cc1nn(C)cc1S(=O)(=O)N(C)[C@@H]1CCC[C@@H](n2ccnc2)[C@@H]1O
cytotoxicity at 70.5 h: 19.1%

CCCN(C(=O)CCS(=O)(=O)Cc1ccccc1)c1cccc(C)c1
cytotoxicity at 70.5 h: -4.29%

OCc1csc(N2CCCN(Cc3ccc(F)cc3)CC2)n1
cytotoxicity at 70.5 h: 2.55%

Cc1csc(C(Cc2ccsc2)NC(=O)Cn2cccnc2=O)n1 (stereo unspecified)
cytotoxicity at 70.5 h: 14.5%

Fc1ccc(CN2CCCC(c3cc4ncccc4[nH]3)C2)cc1 (stereo unspecified)
cytotoxicity at 70.5 h: 3.04%

CCC(CC)c1cc(CNC(=O)N2CCN(CC)CC2)on1
cytotoxicity at 70.5 h: -2.19%

Cc1cc(C)n(C2CN(CC(=O)NCC(C)(C)N3CCOCC3)C2)n1
cytotoxicity at 70.5 h: 0.262%

c1ccn2c(C3CCCN(c4ncnc5c4CCNC5)C3)nnc2c1 (stereo unspecified)
cytotoxicity at 70.5 h: 8.25%

c1ccc(OCCN2CCCC(c3noc(C4CC4)n3)C2)cc1 (stereo unspecified)
cytotoxicity at 70.5 h: -0.448%

COc1ccc(N2CCN(C(=O)CCn3nccc3C)CC2(C)C)cc1
cytotoxicity at 70.5 h: 1.97%

CC(C)CN1CCCC1c1cc[nH]n1 (stereo unspecified)
cytotoxicity at 70.5 h: -1.98%

Cc1c(C(=O)O)oc2ccc(I)cc12
cytotoxicity at 70.5 h: -5.09%

COc1ccccc1CN(C)C(=O)C[S+]([O-])Cc1cc(C)on1 (stereo unspecified)
cytotoxicity at 70.5 h: -1.97%

CCS(=O)(=O)N1C[C@H]2CN(Cc3ccc(OC)cc3)C(=O)[C@H]2C1
cytotoxicity at 70.5 h: -10.9%

COCc1nc(CNC2CSCCSC2)no1
cytotoxicity at 70.5 h: -11.5%

COCC(=O)N1CCN(S(=O)(=O)c2cccs2)[C@H]2CS(=O)(=O)C[C@H]21
cytotoxicity at 70.5 h: -7.15%

Cc1ncsc1CNCC(C)c1nc2ccccc2o1 (stereo unspecified)
cytotoxicity at 70.5 h: -7.51%

CCc1cc(N2CCS(=O)(=O)CC2)n2nc(C)c(C)c2n1
cytotoxicity at 70.5 h: -5.71%

Cc1cc(N(C)C)nc(N2CCN(C(C)c3nc(C)no3)CC2)n1 (stereo unspecified)
cytotoxicity at 70.5 h: 22.7%

O=C(Cc1cc(F)cc(Cl)c1)N[C@@H]1CCNC[C@H]1O
cytotoxicity at 70.5 h: -5.4%

O=C(CCN1CCCC1=O)NCc1cccnc1Oc1ccccc1
cytotoxicity at 70.5 h: -3.36%

CCCC(=O)NCC(=O)NC1CC(C)(C)Cc2oc(C)cc21 (stereo unspecified)
cytotoxicity at 70.5 h: -5.41%

CCc1[nH]c2c(CNc3cncc(C(=O)OC)n3)cc(C)cc2c1C
cytotoxicity at 70.5 h: 20.4%

Cc1cc(NC(=O)NCC(C(C)C)N2CCOCC2)n(C)n1 (stereo unspecified)
cytotoxicity at 70.5 h: -6.55%

Cc1nc(Nc2ccccn2)cc(C2CCCN2Cc2ncc[nH]2)n1 (stereo unspecified)
cytotoxicity at 70.5 h: -6.09%

O=C(CCNC(=O)c1ccoc1)Nc1c(F)cccc1F
cytotoxicity at 70.5 h: -1.23%

Cc1ccc(CNC(CN2CCN(C)CC2)c2ccccc2)cc1 (stereo unspecified)
cytotoxicity at 70.5 h: 3.21%

Cc1cccc2nc(CSCc3nnnn3C(C)C)cn12
cytotoxicity at 70.5 h: -14.3%

CCC(=O)Nc1cccc(OCC(=O)N2CC=CC2C(C)C)c1 (stereo unspecified)
cytotoxicity at 70.5 h: -22.1%

CC(O)CN1CCC(CNCc2cccc(C(=O)N(C)C)c2)CC1 (stereo unspecified)
cytotoxicity at 70.5 h: 1.45%

COCc1nccc(C2CCCN(Cc3ccc(C#N)cc3)C2)n1 (stereo unspecified)
cytotoxicity at 70.5 h: -5.34%

CO[C@@H]1CN(C)S(=O)(=O)[C@@]12CCN(Cc1ccccc1)C2
cytotoxicity at 70.5 h: -7.27%

Cc1nc2ccc(Cl)cn2c1CN1CCN(S(=O)(=O)N2CCCC2)CC1
cytotoxicity at 70.5 h: -4.72%

Cc1cc(C)n(C2CCCN(C(=O)CCOc3ccccc3F)C2)n1 (stereo unspecified)
cytotoxicity at 70.5 h: -9.17%

CSCCCNc1nccc(-c2cc(C(=O)O)ccn2)n1
cytotoxicity at 70.5 h: -7.43%

O=c1[nH]ncn1-c1cccc(C(F)(F)F)c1
cytotoxicity at 70.5 h: 1.41%

O=S(=O)(Cc1ccc(Br)cc1)NCCO
cytotoxicity at 70.5 h: -0.457%

COCc1noc(Cn2ncn3cccc3c2=O)n1
cytotoxicity at 70.5 h: 6.69%

Cc1nc(CN2CCCC(NCc3cccc4ccccc34)C2)no1 (stereo unspecified)
cytotoxicity at 70.5 h: 27.7%

COCCCNC(=O)c1c(C)noc1C(C)C
cytotoxicity at 70.5 h: -11.8%

COCCCN1CCN([C@@H]2c3ccccc3C3(CCNCC3)[C@H]2O)CC1
cytotoxicity at 70.5 h: 0.267%

Cc1nn(C)c(Cl)c1C1CCCN1c1ncnc2[nH]ccc12 (stereo unspecified)
cytotoxicity at 70.5 h: 12.9%

Cc1nnc(CN2CCC3(CCC(=O)N(C4CC4)C3)CC2)o1
cytotoxicity at 70.5 h: 11.6%

Cc1cc(CN(C)C2CCCN(Cc3noc(C4CC4)n3)C2)no1 (stereo unspecified)
cytotoxicity at 70.5 h: 11.8%

Cc1cnc(C2(C)CCN(Cc3csc(C)n3)CC2)s1
cytotoxicity at 70.5 h: -4.14%

Cc1cccc(CN2CC[C@@H]3[C@@H]2CCN3C(=O)Cc2cccs2)n1
cytotoxicity at 70.5 h: -11.7%

COCCNC(=O)[C@H]1C[C@@H]2CCN(c3ncccn3)C[C@H]2O1
cytotoxicity at 70.5 h: -1.44%

Cc1cc(C)cc(OCC(=O)N2CCCN(CC(N)=O)CC2)c1
cytotoxicity at 70.5 h: -16.4%

CCN(CC)c1ncccc1CNC(=O)c1cnn(CC)c1
cytotoxicity at 70.5 h: -3.9%

Cc1ccc(OCC(O)CNC(=O)C2(c3ccc(F)cc3)CC2)cc1 (stereo unspecified)
cytotoxicity at 70.5 h: -7.12%

COC1CCN(C(=O)Cc2csc(-c3ccccc3)n2)CC1
cytotoxicity at 70.5 h: -5.23%

Cc1cc2n(n1)CC(CNC1CCN(C(=O)c3ccco3)CC1)CN2 (stereo unspecified)
cytotoxicity at 70.5 h: -6.69%

Cc1cc(CN(C)C(=O)NCc2ccnc(SC(C)(C)C)c2)no1
cytotoxicity at 70.5 h: -9.52%

Cc1ncc(C(=O)NCCNc2ncnc3sccc23)s1
cytotoxicity at 70.5 h: -2.99%

Cc1nn(CCO)c(C)c1CNCc1cccnc1N(C)C
cytotoxicity at 70.5 h: -4.11%

FC1(F)CCN(c2ccccc2)CC12CCN(c1ncccn1)C2 (stereo unspecified)
cytotoxicity at 70.5 h: -1.34%

CCCc1nnsc1C(=O)N1CCN(CC(C)O)CC1 (stereo unspecified)
cytotoxicity at 70.5 h: -1.92%

CNC(=O)C1(N2CCC[C@H]2C(=O)NC2CCCCC2)CCOCC1
cytotoxicity at 70.5 h: 5.4%

CCOc1ncccc1NC(=O)N1CCOCC1C (stereo unspecified)
cytotoxicity at 70.5 h: -5.63%

COc1ccc(-c2nc(C#N)c(N(C)C)o2)cc1S(=O)(=O)N1CCCC1
cytotoxicity at 70.5 h: 14.1%

COCCN1CCC2(CC1)CC1(CCN(S(C)(=O)=O)CC1)N(C)C2=O
cytotoxicity at 70.5 h: -7.2%

CN1C(=O)CCC12CCN(c1ccc(C#N)cn1)CC2
cytotoxicity at 70.5 h: -8.99%

CC1CN(C(=O)NCc2cccc(C#N)c2)CCN1CC(F)(F)F (stereo unspecified)
cytotoxicity at 70.5 h: -7.28%

COCCNC(=O)CCNc1ccc(Cl)cn1
cytotoxicity at 70.5 h: -6.53%

O=C(Nc1cnn(COc2ccc(F)cc2Cl)c1)C1CC1
cytotoxicity at 70.5 h: 9.89%

O=C(O)[C@@H]1CN(C(=O)c2ccc3[nH]nnc3c2)C[C@H]1c1ccccc1
cytotoxicity at 70.5 h: -4.96%

Cc1cc(C(F)F)nn1CC(=O)NCc1nccn1C
cytotoxicity at 70.5 h: -3.8%

Cc1ccccc1N1CCN(C(=O)c2cnc(N(C)C)nc2C)C(C)C1 (stereo unspecified)
cytotoxicity at 70.5 h: -7.48%

CC(C1CCN(Cc2cnn(C)c2C2CC2)CC1)N1CCN(C)CC1 (stereo unspecified)
cytotoxicity at 70.5 h: -3.33%

Cc1ccc2[nH]c(=O)cc(C(=O)NCCCn3nccc3C3CC3)c2c1
cytotoxicity at 70.5 h: -16%

Cc1cc(NC(=O)NCc2ccccc2OC(F)F)n(C)n1
cytotoxicity at 70.5 h: -5.54%

CN(C)CCOCC1CN(Cc2cccs2)Cc2ccnn2C1 (stereo unspecified)
cytotoxicity at 70.5 h: -9.15%

CNC(=O)c1ccc(C(=O)N2CCCC(n3ccnc3C)C2)cn1 (stereo unspecified)
cytotoxicity at 70.5 h: -3.51%

O=C(NCc1ccncc1)c1ccc(Cl)cc1F
cytotoxicity at 70.5 h: 4.94%

CNc1nc(C(=O)N2CCCN(c3ccnc(C)c3)CC2)cs1
cytotoxicity at 70.5 h: -5.86%

O=C(c1cccc(F)c1)N1CCc2ncc(Cn3cccn3)n2CC1
cytotoxicity at 70.5 h: -11%

O=C(Nc1ccc(F)cc1-c1nc(C2CC2)no1)N1CC[C@@H](O)C1
cytotoxicity at 70.5 h: -6.37%

Cc1cc(CN2CCN(C(=O)CCc3ccco3)CC2)on1
cytotoxicity at 70.5 h: -9.48%

CN1CCCC2(C1)CN(C(=O)C1CCCCC1)CCO2 (stereo unspecified)
cytotoxicity at 70.5 h: -4.05%

c1cc(CNCC2Cn3nncc3CO2)co1 (stereo unspecified)
cytotoxicity at 70.5 h: -6.75%

CCS(=O)(=O)c1ccc(N2CCC(N)CC2)cc1
cytotoxicity at 70.5 h: -1.97%

NC(=O)c1cccc(CCNCc2cccs2)c1
cytotoxicity at 70.5 h: -3.84%

Cc1nn(C)c(C)c1NC(=O)c1cccc(CN2CCS(=O)(=O)CC2)c1
cytotoxicity at 70.5 h: -6.09%

Cc1cnn(CC2CCCCN2C(=O)CC(F)(F)F)c1 (stereo unspecified)
cytotoxicity at 70.5 h: -3.76%

Cn1cnnc1C1CCN(C(=O)CCCOCc2ccccc2)CC1
cytotoxicity at 70.5 h: -11.3%

CC(=O)N1CCc2ncn(C)c2C1C(=O)N1CCCC1 (stereo unspecified)
cytotoxicity at 70.5 h: -6.96%

CCn1cc(NC(=O)NCC(O)COc2ccccc2)cn1 (stereo unspecified)
cytotoxicity at 70.5 h: -7.02%

CC(=O)N1CCN(CC2CCOc3ccccc3C2)CC1 (stereo unspecified)
cytotoxicity at 70.5 h: -1.42%

CC(=O)N1CCc2c(nc(N(C)C)nc2NCCC2CCCCO2)C1 (stereo unspecified)
cytotoxicity at 70.5 h: -5.03%

O=C(c1cscn1)N1CCC2(CN(Cc3ccoc3)C2)C1
cytotoxicity at 70.5 h: -9.97%

CN(C)S(=O)(=O)N1CCN(C(=O)c2cc(-c3ccc(Br)s3)n[nH]2)CC1
cytotoxicity at 70.5 h: -10.1%

Cc1noc(C)c1CN1CCO[C@H]2[C@H](Oc3ccccn3)CC[C@@H]21
cytotoxicity at 70.5 h: -0.309%

O=C(CCn1ccc2ccccc21)N1CCC(Nc2cccnc2)CC1
cytotoxicity at 70.5 h: -1.56%

O=C(c1cccnc1Oc1ccc(Cl)cc1)N1CC[C@@H](O)C1
cytotoxicity at 70.5 h: 24.9%
